Active and inactive are the calls of the source.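 The calls were made as follows: active = IC50 no higher than ten times the top tested dose; inconclusive = flat fit with 30 to 70% inhibition, or poor fit; inactive = IC50 above ten times the top dose.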
Assay: growth modulation of Clostridium difficile isolate – OD600, 9-point, retest, dose response (AID 1224920);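 also: plate controls were DMSO for no effect and levofloxacin control for full effect; inhibitors lower culture turbidity so OD600 falls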
Details: Clostridium difficile clinical isolate growth, OD600, 24 h

SMILES: CCC(=O)N1CC(=O)N2[C@H](CO)[C@@H](c3ccc(C#CC4CCCCC4)cc3)[C@@H]2C1
- activity change, negative = inhibition (at 30 µM (top of the series)): -9.02% (inactive)

SMILES: N#Cc1cccc(-c2ccc3c(c2)[C@@H]2[C@@H](CCN2Cc2ccc4c(c2)OCO4)[C@@H](CO)N3)c1
- activity change, negative = inhibition (at 35 µM (top of the series)): -4.09% (inactive)

SMILES: O=C(Nc1ccccc1)N1CCCCN2[C@H](CO)[C@H](c3ccc(-c4ccccc4F)cc3)[C@H]2C1
- activity change, negative = inhibition (at 30 µM (top of the series)): 38.6% (inactive)

SMILES: O=C(Nc1ccccc1F)N1C[C@@H]2N[C@H](C1)C2c1ccc(-c2cccc(F)c2)cc1 (stereo not given in full)
- activity change, negative = inhibition (at 60 µM (top of the series)): 33.4% (inactive)

SMILES: C[C@@H]1CN([C@@H](C)CO)C(=O)Cc2cc(NS(=O)(=O)c3ccccc3)ccc2O[C@@H]1CN(C)Cc1ccc(Oc2ccccc2)cc1
- activity change, negative = inhibition (at 120 µM (top of the series)): 39.5% (inactive)

SMILES: C[C@H]1CN([C@@H](C)CO)C(=O)c2cccc(NC(=O)Nc3ccc(C(F)(F)F)cc3)c2O[C@@H]1CN(C)C(=O)Nc1ccc(C(F)(F)F)cc1
- activity change, negative = inhibition (at 135 µM (top of the series)): 33.9% (inactive)

SMILES: Cc1ccc(-c2ccc([C@@H]3[C@@H](CO)N4CCCCN(C(=O)Nc5ccccc5)C[C@@H]34)cc2)cc1
- activity change, negative = inhibition (at 120 µM (top of the series)): 27.7% (inactive)

SMILES: CC(=O)N1[C@H](CN(C)C(=O)CN2CCOCC2)[C@@H](c2ccccc2)[C@@H]1CO
- activity change, negative = inhibition (at 120 µM (top of the series)): -1.26% (inactive)

SMILES: CC(=O)NC[C@H]1[C@H](c2ccc(-c3cccc(F)c3)cc2)[C@@H](CO)N1C(C)=O
- activity change, negative = inhibition (at 120 µM (top of the series)): -18.5% (inactive)

SMILES: O=C(Nc1ccc(F)cc1)N1[C@@H]2CNC[C@H]1C2c1ccc(-c2ccc(F)cc2)cc1 (stereo not given in full)
- activity change, negative = inhibition (at 60 µM (top of the series)): 14.2% (inactive)

From PubChem BioAssay AID1224920 (Broad Institute, 2016)
